Laboratory results taken from paper PMC3465515 (Nuclear medicine and biology, 2012).
Like-named read-outs stand apart in the source and are kept apart here.

What was measured:
human ERβ = human ERβ (Homo sapiens, UniProt Q92731); assay: competitive radiometric binding assay with [3H]estradiol, ERβ; details: for β/α ratio: ratio of RBA ERβ to RBA ERα
human ERα = target: T1, human ERα (Homo sapiens, UniProt P03372); assay: competitive radiometric binding assay with [3H]estradiol, ERα
T1 sequence (P03372 1-595): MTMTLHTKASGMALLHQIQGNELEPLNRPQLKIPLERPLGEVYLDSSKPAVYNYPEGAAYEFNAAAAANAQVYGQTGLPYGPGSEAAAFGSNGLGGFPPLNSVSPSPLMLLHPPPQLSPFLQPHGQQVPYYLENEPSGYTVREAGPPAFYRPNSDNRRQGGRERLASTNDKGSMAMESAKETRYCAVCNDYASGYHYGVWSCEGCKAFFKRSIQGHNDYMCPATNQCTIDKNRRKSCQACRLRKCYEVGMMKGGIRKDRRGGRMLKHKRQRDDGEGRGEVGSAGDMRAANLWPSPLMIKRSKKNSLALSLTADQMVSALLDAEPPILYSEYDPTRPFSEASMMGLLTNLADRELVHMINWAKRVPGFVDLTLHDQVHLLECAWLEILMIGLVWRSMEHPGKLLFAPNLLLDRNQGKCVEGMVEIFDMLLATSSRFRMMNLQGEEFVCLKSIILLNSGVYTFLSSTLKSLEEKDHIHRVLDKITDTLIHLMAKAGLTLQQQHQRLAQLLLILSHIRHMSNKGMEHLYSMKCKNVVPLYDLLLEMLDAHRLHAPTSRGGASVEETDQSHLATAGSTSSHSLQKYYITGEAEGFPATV

[1] = estradiol = 100, purified full-length human ERβ, 18-24 h at 0 °C
[2] = estradiol = 100, purified full-length human ERα, 18-24 h at 0 °C

human ERβ, sequence (Q92731 whole entry): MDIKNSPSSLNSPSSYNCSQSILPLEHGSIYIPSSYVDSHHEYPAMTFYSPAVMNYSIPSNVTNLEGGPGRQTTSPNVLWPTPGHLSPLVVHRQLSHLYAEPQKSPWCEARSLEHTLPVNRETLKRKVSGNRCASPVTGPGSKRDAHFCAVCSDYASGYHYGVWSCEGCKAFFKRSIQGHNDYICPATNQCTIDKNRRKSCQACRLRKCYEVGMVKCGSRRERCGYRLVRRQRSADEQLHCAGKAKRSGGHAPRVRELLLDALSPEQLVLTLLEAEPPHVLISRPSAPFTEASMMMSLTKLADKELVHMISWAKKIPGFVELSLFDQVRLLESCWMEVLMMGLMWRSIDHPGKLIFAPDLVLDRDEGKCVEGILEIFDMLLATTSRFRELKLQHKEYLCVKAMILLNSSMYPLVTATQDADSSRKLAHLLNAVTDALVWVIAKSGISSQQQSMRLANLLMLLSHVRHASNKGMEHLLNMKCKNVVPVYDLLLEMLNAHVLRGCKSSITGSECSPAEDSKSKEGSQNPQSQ

**Q.** What does the source list for `C=Cc1cc(O)cc2nc(-c3ccc(O)c(F)c3)oc12` [ERB-041]?
**A.** Relative Binding Affinity (RBA) ERβ (human ERβ): 3.22 ± 0.91%; β/α ratio (human ERβ): 460; Relative Binding Affinity (RBA) ERα (human ERα): 0.007 ± 0.001%

**Q.** Which results are given for `N#C[C@H](c1ccc(O)cc1)[C@@H](CCF)c1ccc(O)cc1` [FEDPN]?
**A.** Relative Binding Affinity (RBA) ERβ (human ERβ; [1]): 8.74 ± 1.87%; β/α ratio (human ERβ): 20; Relative Binding Affinity (RBA) ERα (human ERα; [2]): 0.43 ± 0.09%

**Q.** Which “Relative Binding Affinity (RBA) ERβ” value (human ERβ; [1]) does the source give for `C=C[C@@]12CCc3cc(O)ccc3[C@H]1CC[C@@]1(C)[C@H]2CC[C@@H]1O` [compound 1, 8β-Vinyl-estra-1,3,5(10)-triene-3,17β-diol] here?
**A.** 105%

**Q.** And the β/α ratio (human ERβ)?
**A.** 350

**Q.** And the “Relative Binding Affinity (RBA) ERα” value (human ERα; [2])?
**A.** 0.30%

**Q.** What does the source list for `C[C@]12CC[C@@H]3c4ccc(O)cc4CC[C@@]3(CCF)[C@@H]1CC[C@@H]2O` [compound 6, 8β-(2-Fluoroethyl)estra-1,3,5(10)-trien-3,17β-diol]?
**A.** Relative Binding Affinity (RBA) ERβ (human ERβ; [1]): 8.27 ± 0.98%; β/α ratio (human ERβ): 179; fold lower affinity than parent 8BVE2, ERβ (human ERβ; vs 8β-vinylestradiol): ~10 fold; Relative Binding Affinity (RBA) ERα (human ERα; [2]): 0.046 ± 0.005%; fold lower affinity than parent 8BVE2, ERα (human ERα; vs 8β-vinylestradiol): ~10 fold
